Data set [1] concerns oxazolone-induced ear swelling in CD-1 mice. As to the kind of experiment: mouse oxazolone-induced contact hypersensitization (MOCH), ear swelling. Particulars: topical to ear, 1 mg, mouse, 24 hours after oxazolone challenge; read-out: Oxazolone Ear Swelling (MOCH) % inhibition vs. Vehicle at 1 mg. In kind it is in vivo. How it is done: Several triphenylpropanamide compounds of this invention, having varying affinities for the human glucocorticoid receptor, were tested for topical antiinflammatory activity in mouse ear inflammation models. […] Compounds having receptor affinities closer to hydrocortisone were as nearly active as hydrocortisone in suppressing mouse oxazolone-induced contact hypersensitization (MOCH) and phorbol ester-induced ear edema. The in vivo studies of this example were conducted as follows.
In determining the MOCH using the compounds of this invention, albino male CD-1 mice, 7-9 weeks old were induced on the shaved abdomen with 50 μl of 3% oxazolone in acetone/corn oil (Day 0). On Day 5, a 20 μl volume of 2% oxazolone in acetone was applied to the dorsal left ear of the mouse. Compounds (made in ethanol/propylene glycol, 70:30) were applied to the left ear in 20 μl volume, one hour after oxazolone challenge. The right ear was not treated. The mice were sacrificed by carbon dioxide inhalation 24 hours after oxazolone challenge, the left and right ears were removed and a 7 mm biopsy was removed from each ear and weighed. The difference in biopsy weights between the right and left ears was calculated. Antiinflammatory effects of compounds were evident as an inhibition of the increase in ear weight.

Structures are written as SMILES.

A word on the melting point: it is the temperature, or range, at which the solid turns liquid. In turn, `O=C(Cc1cccs1)NCC(c1ccc(Cl)cc1)C(c1ccccc1)c1ccccc1` (stereo not drawn) [Compound 34] returned a melting point of 126.3 to 127 °C. The inhibition in vivo at 1 mg in data set [1] stood at 29%.

The compound `O=C(Cc1ccsc1)NCC(c1ccc(Cl)cc1)C(c1ccccc1)c1ccccc1` (stereo not drawn) [Compound 35] returned a melting point of 126.4 to 127.9 °C. In addition, the inhibition in vivo at 1 mg in data set [1] came to 36%.

The compound `O=C(Cc1ccsc1)NCC(c1ccccc1)C(c1ccccc1)c1ccccc1` (stereo not drawn) [Compound 36] displayed a melting point of 135 to 138 °C. The inhibition in vivo at 1 mg in data set [1] was determined as 13%.

In turn, `O=C(CCCc1cccs1)NCC(c1ccccc1)C(c1ccccc1)c1ccccc1` (stereo not drawn) [Compound 37] gave a melting point of 105.5 to 106.9 °C. The inhibition in vivo at 1 mg in data set [1] came to 25%.

In the case of `O=C(C=Cc1cccs1)NCC(c1ccccc1)C(c1ccccc1)c1ccccc1` (stereo not drawn) [Compound 38], the melting point lay within 217.3 to 218.9 °C. Besides, the inhibition in vivo at 1 mg in data set [1] was 13%.

With `O=C(C=Cc1ccsc1)NCC(c1ccccc1)C(c1ccccc1)c1ccccc1` (stereo not drawn) [Compound 39], the melting point lay in the range of 204.8 to 206.5 °C. Further, the inhibition in vivo at 1 mg in data set [1] was found to be 24%.

`O=S(=O)(NCC(c1ccccc1)C(c1ccccc1)c1ccccc1)c1cccs1` (stereo not drawn) [Compound 40] had a melting point of 169 to 170.9 °C. In data set [1], the inhibition in vivo at 1 mg was found to be 15%.

Consider `O=S(=O)(NCC(c1ccc(Cl)cc1)C(c1ccccc1)c1ccccc1)c1cccs1` (stereo not drawn) [Compound 41], for which the melting point is 180.4 to 181.9 °C. In data set [1], the inhibition in vivo at 1 mg was determined as 3%.

`O=C(NCC(c1ccccc1)C(c1ccccc1)c1ccccc1)c1ccsc1` (stereo not drawn) [Compound 42] had a melting point of 153.5 to 154.7 °C. In data set [1], the inhibition in vivo at 1 mg was determined as 27%.

For the compound `O=C(NCC(c1ccccc1)C(c1ccccc1)c1ccccc1)c1cc2ccccc2s1` (stereo not drawn) [Compound 43], the melting point is 218.3 to 218.8 °C. The inhibition in vivo at 1 mg in data set [1] was found to be 47%.

`CN(CC(c1ccccc1)C(c1ccccc1)c1ccccc1)C(=O)Cc1cccs1` (stereo not drawn) [Compound 44] displayed a melting point of 107 to 109.3 °C. In data set [1], the inhibition in vivo at 1 mg worked out at 3%.

On to `O=C(NCC(c1ccccc1)C(c1ccccc1)c1ccccc1)c1cccs1` (stereo not drawn) [Compound 45], for which the melting point is 139 to 142 °C. In data set [1], the inhibition in vivo at 1 mg amounted to 31%.

In turn, `O=C(Cc1c[nH]c2ccccc12)NCC(c1ccccc1)C(c1ccccc1)c1ccccc1` (stereo not drawn) [Compound 47] registered a melting point of 89 to 93 °C. In addition, the inhibition in vivo at 1 mg in data set [1] worked out at 51%.

On to `O=C(CCc1c[nH]c2ccccc12)NCC(c1ccccc1)C(c1ccccc1)c1ccccc1` (stereo not drawn) [Compound 48], for which the melting point fell in the range of 100 to 114 °C. In addition, in data set [1], the inhibition in vivo at 1 mg amounted to 22%.

`O=C(Cc1ccccn1)NCC(c1ccccc1)C(c1ccccc1)c1ccccc1` (stereo not drawn) [Compound 49] gave a melting point of 120.1 to 121.7 °C. For the same compound, the inhibition in vivo at 1 mg in data set [1] came out at 20%.

Turning to `O=C(NCC(c1ccccc1)C(c1ccccc1)c1ccccc1)Nc1ccccc1F` (stereo not drawn) [Compound 53], the melting point lay within 190 to 191 °C. The inhibition in vivo at 1 mg in data set [1] came out at 24%.

Regarding `O=C(NCc1ccccc1)NCC(c1ccccc1)C(c1ccccc1)c1ccccc1` (stereo not drawn) [Compound 54], the melting point lay in the range of 170 to 171 °C. Besides, in data set [1], the inhibition in vivo at 1 mg is 10%.

The compound `O=C(NCc1ccc(Cl)cc1Cl)NCC(c1ccccc1)C(c1ccccc1)c1ccccc1` (stereo not drawn) [Compound 55] had a melting point of 166 to 167 °C. For the same compound, the inhibition in vivo at 1 mg in data set [1] came out at 18%.

In the case of `O=C(NCC(c1ccccc1)C(c1ccccc1)c1ccccc1)Oc1ccccc1` (stereo not drawn) [Compound 56], the melting point fell in the range of 128 to 129 °C. The inhibition in vivo at 1 mg in data set [1] worked out at 38%.

Regarding `O=C(NCC(c1ccccc1)C(c1ccccc1)c1ccccc1)Oc1ccc(F)cc1` (stereo not drawn) [Compound 58], the melting point was 150 to 151 °C. The inhibition in vivo at 1 mg in data set [1] worked out at 16%.

On to `CCCC(=O)NCC(c1ccccc1)C(c1ccccc1)c1ccccc1` (stereo not drawn) [Compound 60], for which the melting point is 88 to 89 °C. Moreover, the inhibition in vivo at 1 mg in data set [1] came out at 27%.

Values taken from patent US6372779B1, “Anti-inflammatory compounds” (Ortho Pharmaceutical Corporation, priority 1997, dated 2002).
